This note sets out measurements from patent US11872216B2, “Pharmaceutical formulation comprising cineole and amoxicillin” (priority 2016, dated 2024).

In experiment [1] the test system is amoxicillin-sensitive bacterial strain of Escherichia coli (ATCC 8739). The experiment in a line: Enzymatic test in liquid medium (growth inhibition with or without β-lactamase and cineole). The experiment is classed as cell-based. Conditions: for % inhibition of growth: AMX 6 μg/ml, cineole 0.002 μl/ml, β-lactamase 0.03 U/ml where present, 22 hours at 30° C. As for the experimental part: This study is based on an enzymatic test first placing AMX combined with cineole in contact with ß-lactamases. The antibacterial activity of this antibiotic was then checked on an AMX-sensitive strain of Escherichia coli.
An amoxicillin-sensitive bacterial strain of Escherichia coli (ATCC 8739) was supplied by the national hygiene institute (INH-Rabat).
For each test performed, precultures of this E. coli strain of 24 h at 37° C. were prepared from this bacterial strain (frozen beforehand at −20° C.). From these precultures, bacterial inocula of 3.3×10^6 CFU/ml were prepared, adjusting the optical density to 540 nm.
The ß-lactamase powder was supplied by Sigma Aldrich (France). It was dissolved according to the supplier's instructions, at 10 mg/ml in 0.1 M of Tris HCl at pH 7, containing 0.1% of gelatin. The ß-lactamase (0.03 U/ml) thus prepared was stored between 2 and 8° C.
The MIC of AMX at 100% with respect to the sensitive strain of Escherichia coli, determined via the microdilution method described previously, is of the order of 6 μg/ml.
Starting with a 24 h preculture of the sensitive strain of E. coli, bacterial inocula at 3.3×10^6 CFU/ml were prepared, adjusting the optical density to 540 nm.
Five control tubes and one test tube were prepared as described in table 6 (cf. below).
Tube no 1 corresponds to the sterility control of the medium. Tube no 2 corresponds to the positive control of viability of the bacterial strain. Tube no 3 corresponds to the control of sensitivity of the strain to AMX. Tube no 4 corresponds to the control of non-inhibition of bacterial growth with an infra-inhibitory concentration of cineole. Tube no 5 corresponds to the control of degradation of AMX in the presence of ß-lactamase. Tube no 6 corresponds to the test of the effect of cineole on amoxicillin inhibition by the β-lactamases.
The OD was measured at time t=0, and after 22 hours of incubation at 30° C. The percentage of inhibition was then calculated according to the formula described previously:
With ODT0=OD of the test tube at time t=0, ODT22=OD of the test tube after 22 h of incubation, ODC0=OD of the positive control tube at time t=0, ODC22=OD of the positive control tube after 22 h of incubation.

The subject of experiment [2] is three strains of BSBL Escherichia coli and three strains of BSBL Klebsiella pneumoniae. Description: Microplate microdilution, statements over all six strains tested. In kind it is cell-based. As for the experimental part: The six strains tested in this study are purified clinical isolates identified in the bacteriology laboratory of the Hassan II university teaching hospital center (CHU, Fes, Morocco). Three of the six bacterial strains tested are strains of BSBL Escherichia coli (P956, P933 and P7847) and the other three bacterial strains tested are strains of BSBL Klebsiella pneumoniae (H1878, H2001 and H1893).
For each test performed, precultures of the bacterial strains (frozen beforehand at −20° C.) for 24 h at 37° C. were prepared. From these precultures, bacterial inocula containing 2×10^7 CFU (colony-forming units)/ml were prepared, adjusting the optical density to 540 nm.
Amoxicillin (AMX) and cineole were supplied by Sigma Aldrich (France). A stock solution of AMX (400 μg/ml) was prepared after dissolving 40 mg of antibiotic in 100 ml of sterile distilled water. From this stock solution, serial dilutions were performed. The cineole concentrations used were prepared by emulsifying pure cineole in 0.2% (v/v) of agar-agar according to the method described by Remmal A et al. (J. Essent. Oil. Res [Book], 1993, 5: pages 1179-1184).
The partial inhibitory concentrations (PIC) are the concentrations of antibacterial agents which inhibit the growth of a given percentage (90%, 75%, 50%, 40% . . . ) of the bacterial population studied. The PICs of AMX and cineole with respect to the six bacterial strains used were determined via a microplate microdilution technique based on the monitoring of the bacterial growth by measuring the optical density (Casey J. T. et al., J. Microbiol. Meth [Book], 2004, 58: pages 327-334; Patton T et al., J. Microbiol. Meth [Book], 2006, 64: pages 84-95).
96-well U-shaped sterile microplates with a capacity of 200 μl were used. […]
For AMX and cineole, two rows were prepared containing 100 μl of MH liquid medium, 50 μl of the bacteria inoculum at 2×10^7 CFU/ml and 50 μl of decreasing concentrations of antimicrobial agents. […] The optical densities (OD) were determined at 540 nm using a microplate spectrophotometer (Versamax, Molecular Devices, USA). The OD was measured at time t=0 and after 22 hours of incubation at 30° C. The percentage of inhibition of the antimicrobial agents with respect to each of the six strains was calculated according to Casey J. T. et al. (J. Microbiol. Meth. [Book], 2004, 58: pages 327-334) according to the following formula: […]
After having determined the PICs of AMX and cineole alone, the antibacterial power of the combination of AMX and cineole was evaluated. […]
The fractional inhibitory concentration index (FIC-index) expressing the degree of synergism of the AMX-cineole combination was calculated according to the following formula (Odds F. C. et al., J. Antimicrob. Chemoth. [Book], 2003, 52: page 1). […]
For orientation: Dilution methods test growth across graded concentrations, often in twofold steps.

Regarding `CC12CCC(CC1)C(C)(C)O2` [cineole, 1,8-cineole], the “% inhibition of growth” value in experiment [1] was “no growth inhibition”; in experiment [1] (listed as Cineole) it was 0% ± 0.0. Also, the “40% PIC of cineole” value in experiment [2] (span over all strains tested) is on record as 6.2-7.1 μl/ml. Further, the MICs of cineole in experiment [2] (three strains of E. coli and three strains of K. pneumoniae) was around 100 μl/ml.

On to `CC1(C)S[C@@H]2[C@H](NC(=O)[C@H](N)c3ccc(O)cc3)C(=O)N2[C@H]1C(=O)O` [amoxicillin, Amoxicillin], for which the “% inhibition of growth” value in experiment [1] was 100% ± 0.0. Further, the MIC in experiment [1] (ATCC8739, sensitive strain of Escherichia coli, microdilution, read-out: MIC of AMX at 100%) was around 6 µg/mL; in experiment [2] (three strains of E. coli and three strains of K. pneumoniae, read-out: minimum inhibitory concentrations (MIC, 100% inhibition) of AMX), around 50 µg/mL. Further, the IC50 in experiment [2] (span over all strains tested, read-out: 50% PIC of AMX) lay in the range of 1.1 to 1.7 µg/mL.
